Here are results for two sequences from patent US11505580B2, “Leech polypeptide and use thereof” (priority 2019, dated 2022).

Where no end group is shown, it is not given here.

Holding throughout (type): cell-based
The test system of one test is IL-6. As to the kind of experiment: ELISA of IL-6 secretion by macrophages RAW264.7. To be noted: 0-800 μg/mL. An excerpt: (§1) The effect of HE-D on the secretion of IL-1, IL-6, IL-12, and TNF-α by macrophages RAW264.7 was detected by ELISA.
Test [1] has as its system macrophage RAW264.7. Briefly: Lysozyme activity assay. Particulars: 0-800 μg/mL. The method, then:
(§2) The effects of HE-D on the phagocytosis ability and lysozyme activity of macrophage RAW264.7 were measured by neutral red phagocytosis test and lysozyme activity assay.

A further test has as its system IL-12. Briefly: ELISA of IL-12 secretion by macrophages RAW264.7. Particulars: 0-800 μg/mL.
Description: as §1

Another test deals with JNK. Briefly: Western-blot of JNK signaling pathway in LPS-induced RAW264.7 cells. Particulars: RAW264.7 induced with LPS. The method, then: (§3) The mechanism of HE-D inhibiting macrophages RAW264.7 was tested by Western-blot.
For a further test, the system named is TNF-α. Briefly: ELISA of TNF-α secretion by macrophages RAW264.7. Particulars: 400 and 800 μg/mL.
Description: as §1
For orientation: In an ELISA, binding on a coated surface is turned into a signal by an enzyme label.

For the next test, the system named is macrophages RAW264.7. Briefly: Transwell migration assay, LPS-induced macrophage RAW264.7 migration. Particulars: 800 μg/mL, 1 μg/mL LPS. An excerpt:
In this example, a leech zymolyte HE was firstly prepared from […] by enzymolysis. […] Then, HE was separated and purified by chromatography on QSepharose FF strong basic anion exchange column, and chromatography on Superdex30, Superdexpeptide and G10 gel column, and Transwell assay was done to track the activity. Finally leech polypeptide HE4-1 having activity to inhibit the migration of macrophages RAW264.7 was obtained. Transwell migration assay was used to detect the activity of HE1-HE6 in inhibiting the macrophage migration. […] Transwell assay was used to detect the inhibition of HE-D on the migration activity of macrophages RAW264.7. The experiments were divided into five groups, including a blank control group, an LPS model group and 200, 400, 800 μg/mL HE-D groups.

Test [2] concerns macrophage RAW264.7. Briefly: Neutral red phagocytosis test. To be noted: 0-800 μg/mL. As for the experimental part:
as §2

The test system of a further test is p38. Briefly: Western-blot of p38 signaling pathway in LPS-induced RAW264.7 cells. Particulars: RAW264.7 induced with LPS. The method, then:
as §3

The test system of another test is IL-1. Briefly: ELISA of IL-1 secretion by macrophages RAW264.7. To be noted: 0-800 μg/mL.
Description: as §1

On to EAGSAKELEGDPVAG [HE-D], for which, in the test on IL-6, the “secretion of IL-6” value is recorded as “no significant effect”. In the test on macrophage RAW264.7 [1], the “lysozyme activity of macrophages RAW264.7” value was “no obvious effect”. In addition, the “secretion of IL-12” value in the test with IL-12 is given as “no significant effect”. The “LPS-induced increase in expression level of phosphorylated JNK protein” value with JNK (800 μg/mL) is reported as “significantly inhibit the increase”. In addition, the “expression of JNK protein” value with JNK is “no significant effect”. For the same sequence, in the test with TNF-α, the “promotion effect on secretion of TNF-α” value was found to be 11.4% and the “secretion of TNF-α” value is recorded as “promote the secretion”. Also, the “inhibition rate of LPS-induced migration of macrophages RAW264.7” value in the test with macrophages RAW264.7 is 14.9%. Further, the “phagocytosis ability of macrophages RAW264.7” value in the test on macrophage RAW264.7 [2] was “no obvious effect”. In addition, the “LPS-induced increase in expression level of phosphorylated p38 protein” value in the test with p38 (800 μg/mL) is “significantly inhibit the increase”. Moreover, in the test on p38, the “expression of total p38 protein” value is “no significant effect”. The “secretion of IL-1” value in the test with IL-1 is listed as “no significant effect”.
With “EAGSAKELEGDPVAG [HE4-1, leech polypeptide isolated and purified from HE4 by Superdex30, Superdexpeptide and G10 gel chromatography]”, the “inhibition rate of LPS-induced migration of macrophages RAW264.7” value in the test with macrophages RAW264.7 was 15.2%.
